According to the supplement of paper PMC10307832:

compound: CN(C)C(=N)NC(=N)N [Metformin] + Cc1nc(NC(=O)N2CCC[C@H]2C(N)=O)sc1-c1ccnc(C(C)(C)C(F)(F)F)c1 [Alpelisib] (partner 2 µM); test: relative viability (nuclei count vs DMSO), 5 days (fraction); higher = more cells survive; settings: first compound 100 µM
Method in brief: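 Dosing by pin tool came one day after lung cancer cell lines were seeded in 1536-well plates, using either one drug or a fixed anchor-drug dose plus five library-drug doses (not always all listed) in √10 steps. After 5 days, nuclei were counted on 4× images. Relative viability is treated-well nuclei count divided by vehicle-well nuclei count, and values are medians of duplicate plates.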

How did the relative viability turn out when NCI-H1666 was run?
The relative viability was 1.12.

With NCI-H1734 as the cell line, how does the relative viability read?
The relative viability was 0.715.

Which relative viability does the source give for NCI-H1755 here?
Its relative viability is 0.796.

Which relative viability does the source give for NCI-H1792 here?
Its relative viability is 0.979.

Which relative viability does the source give for NCI-H1793 here?
Its relative viability is 0.953.

For NCI-H1915, which relative viability is on record?
Its relative viability is 1.09.

How did the relative viability turn out when NCI-H1944 was run?
Its relative viability is 1.06.

Which relative viability does the source give for NCI-H1975 here?
The relative viability was 0.862.

Which relative viability does the source give for NCI-H1993 here?
Its relative viability is 0.643.

NCI-H2009 was tested. Which relative viability did it give?
The relative viability was 1.13.

NCI-H2023 was tested. Which relative viability did it give?
Its relative viability is 0.627.

Which relative viability does the source give for NCI-H2085 here?
The relative viability was 0.944.

Which relative viability does the source give for NCI-H2087 here?
The relative viability was 1.05.

With NCI-H2126 as the cell line, how does the relative viability read?
Its relative viability is 0.755.

Which relative viability does the source give for NCI-H2347 here?
Its relative viability is 1.09.

For NCI-H2405, which relative viability is on record?
The relative viability was 0.852.

How did the relative viability turn out when NCI-H3122 was run?
Its relative viability is 0.649.

same assay, conditions: first compound 316.23 µM

How did the relative viability turn out when NCI-H322M was run?
The relative viability was 0.787.

With NCI-H358 as the cell line, how does the relative viability read?
Its relative viability is 0.915.

For NCI-H520, which relative viability is on record?
Its relative viability is 0.665.

With NCI-H596 as the cell line, how does the relative viability read?
Its relative viability is 0.547.

How did the relative viability turn out when NCI-H647 was run?
The relative viability was 1.15.

Which relative viability does the source give for NCI-H650 here?
Its relative viability is 1.23.

Which relative viability does the source give for NCI-H661 here?
Its relative viability is 0.757.

Which relative viability does the source give for NCI-H727 here?
The relative viability was 0.647.

For NCI-H838, which relative viability is on record?
Its relative viability is 0.988.

NCI-H1355 was tested. Which relative viability did it give?
Its relative viability is 0.857.

Which relative viability does the source give for NCI-H1395 here?
The relative viability was 0.424.

NCI-H1437 was tested. Which relative viability did it give?
Its relative viability is 1.05.

For NCI-H1651, which relative viability is on record?
The relative viability was 1.08.

How did the relative viability turn out when NCI-H1666 was run?
Its relative viability is 0.981.

NCI-H1734 was tested. Which relative viability did it give?
Its relative viability is 0.681.

For NCI-H1755, which relative viability is on record?
Its relative viability is 0.724.

For NCI-H1792, which relative viability is on record?
Its relative viability is 0.691.

Which relative viability does the source give for NCI-H1793 here?
Its relative viability is 0.761.

With NCI-H1915 as the cell line, how does the relative viability read?
The relative viability was 1.04.

NCI-H1944 was tested. Which relative viability did it give?
The relative viability was 0.886.

Which relative viability does the source give for NCI-H1975 here?
The relative viability was 0.707.

How did the relative viability turn out when NCI-H1993 was run?
The relative viability was 0.62.

How did the relative viability turn out when NCI-H2009 was run?
Its relative viability is 1.17.

NCI-H2085 was tested. Which relative viability did it give?
The relative viability was 0.903.

Which relative viability does the source give for NCI-H2087 here?
Its relative viability is 0.982.

For NCI-H2126, which relative viability is on record?
The relative viability was 0.716.

For NCI-H2228, which relative viability is on record?
Its relative viability is 0.542.

With NCI-H2347 as the cell line, how does the relative viability read?
Its relative viability is 0.961.

How did the relative viability turn out when NCI-H2405 was run?
The relative viability was 0.453.

With NCI-H3122 as the cell line, how does the relative viability read?
Its relative viability is 0.625.

same assay, conditions: first compound 1000 µM

How did the relative viability turn out when NCI-H322M was run?
The relative viability was 0.779.

Which relative viability does the source give for NCI-H358 here?
Its relative viability is 1.25.

With NCI-H441 as the cell line, how does the relative viability read?
Its relative viability is 0.572.

For NCI-H520, which relative viability is on record?
Its relative viability is 0.86.

NCI-H596 was tested. Which relative viability did it give?
Its relative viability is 0.577.

NCI-H647 was tested. Which relative viability did it give?
The relative viability was 1.21.

Which relative viability does the source give for NCI-H650 here?
The relative viability was 1.37.

With NCI-H661 as the cell line, how does the relative viability read?
Its relative viability is 0.774.

For NCI-H727, which relative viability is on record?
Its relative viability is 0.533.

For NCI-H838, which relative viability is on record?
Its relative viability is 1.02.

For NCI-H1355, which relative viability is on record?
The relative viability was 0.842.

How did the relative viability turn out when NCI-H1395 was run?
Its relative viability is 0.342.

With NCI-H1437 as the cell line, how does the relative viability read?
Its relative viability is 1.01.

With NCI-H1651 as the cell line, how does the relative viability read?
The relative viability was 1.15.

How did the relative viability turn out when NCI-H1666 was run?
Its relative viability is 1.29.

With NCI-H1734 as the cell line, how does the relative viability read?
The relative viability was 0.827.

How did the relative viability turn out when NCI-H1755 was run?
Its relative viability is 0.798.

NCI-H1792 was tested. Which relative viability did it give?
Its relative viability is 0.869.

How did the relative viability turn out when NCI-H1793 was run?
Its relative viability is 0.919.

For NCI-H1915, which relative viability is on record?
Its relative viability is 1.11.

Which relative viability does the source give for NCI-H1944 here?
Its relative viability is 0.973.

For NCI-H1975, which relative viability is on record?
The relative viability was 0.861.

How did the relative viability turn out when NCI-H1993 was run?
The relative viability was 0.705.

Which relative viability does the source give for NCI-H2009 here?
Its relative viability is 1.1.

Which relative viability does the source give for NCI-H2023 here?
The relative viability was 0.506.

Which relative viability does the source give for NCI-H2085 here?
The relative viability was 0.985.

With NCI-H2087 as the cell line, how does the relative viability read?
Its relative viability is 0.963.

With NCI-H2126 as the cell line, how does the relative viability read?
Its relative viability is 0.755.

How did the relative viability turn out when NCI-H2228 was run?
Its relative viability is 0.898.

Which relative viability does the source give for NCI-H2347 here?
The relative viability was 1.01.

How did the relative viability turn out when NCI-H2405 was run?
The relative viability was 0.373.

For NCI-H3122, which relative viability is on record?
Its relative viability is 0.668.
